T/C data for 4 molecules are collected here from PubChem BioAssay AID268 (DTP/NCI, 2004).

Several values for one entry are separate records, joined by “and”; a condition that tells them apart may be missing. Equal entries are not always repeated.

This experiment relates to CD2F1 mice, P1798 lymphosarcoma sc, tumor weight T/C. Description: NCI In Vivo Anticancer Drug Screen. Data for tumor model P1798 Lymphosarcoma (subcutaneous) in CD2F1 (CDF1) mice. The settings on record: endpoint: mean tumor weight, higher = larger tumour. How it is done: The antitumor activity of compounds was measured in mice bearing transplantable tumors. Survival or tumor size were measured and the results are expressed as the measurement made in the treated group (T) divided by the measurement made in the vehicle treated control group (C). The tumor model used in this assay is P1798 Lymphosarcoma (subcutaneous) in CD2F1 (CDF1) mice

The mark [1] stands for this setting: dose: 25.0 mg/kg/injection, schedule: Q01DX010 (ip), vehicle: saline.
The mark [2] stands for this setting: dose: 50.0 mg/kg/injection, schedule: Q01DX010 (ip), vehicle: saline.

Consider `COc1ccc2c(c1)CC[C@@H]1[C@@H]2CC[C@@]2(C)[C@H]1CC[C@@]2(O)C(F)=C(F)F`, for which the T/C (dose: 111.0 mg/kg/injection, schedule: Q01DX010 (sc), vehicle: steriod suspending solution) is 12 % of control; the T/C (dose: 167.0 mg/kg/injection, schedule: Q01DX010 (sc), vehicle: steriod suspending solution) is 9 % of control; the T/C (dose: 250.0 mg/kg/injection, schedule: Q01DX010 (sc), vehicle: steriod suspending solution) is 10 % of control; the T/C (dose: 375.0 mg/kg/injection, schedule: Q01DX010 (sc), vehicle: steriod suspending solution) was 8 % of control.

With `CC(=O)Nc1ccc(/C=N/Nc2ccc([N+](=O)[O-])cn2)cc1`, the T/C (dose: 62.5 mg/kg/injection, schedule: Q01DX010 (ip), vehicle: saline) was 66 % of control; the T/C (dose: 125.0 mg/kg/injection, schedule: Q01DX010 (ip), vehicle: saline) is 75 % of control; the T/C (dose: 250.0 mg/kg/injection, schedule: Q01DX010 (ip), vehicle: saline) was 16 % of control.

For the molecule `COc1cc(-c2ccc(Nc3ccccc3C(=O)O)c(OC)c2)ccc1Nc1ccccc1C(=O)O`, the T/C (dose: 12.5 mg/kg/injection, schedule: Q01DX010 (ip), vehicle: saline) is 61 % of control; the T/C under setting [1] is 53 % of control and 57 % of control; the T/C under setting [2] was 12 % of control and 30 % of control.

As for `OC(CBr)C(O)C(O)C(O)CBr` (stereo not drawn), the T/C runs as follows: under setting [1], 62 % of control; under setting [2], 70 % of control and 84 % of control; (dose: 400.0 mg/kg/injection, schedule: Q01DX010 (ip), vehicle: saline) 98 % of control.
